From patent US9045445B2, “Glycine transporter-1 inhibitors, methods of making them, and uses thereof” (Albany Molecular Research, Inc., priority 2010, dated 2015)
pIC50: −log10 of the molar value. Counter-ions that a name gives are not always drawn. Like-named read-outs stand apart in the source and are kept apart here.

Columns and labels:
[1] = target: T1, glycine transporter-2 (GlyT-2) (Homo sapiens, UniProt Q9Y345); test: [14C]glycine uptake assay in HEK-GlyT-2 transfected cells; assay type: cell-based; conditions: HEK-GlyT-2 cells
T1 construct: expressed in transfected cells
T1 sequence (Q9Y345 1-797): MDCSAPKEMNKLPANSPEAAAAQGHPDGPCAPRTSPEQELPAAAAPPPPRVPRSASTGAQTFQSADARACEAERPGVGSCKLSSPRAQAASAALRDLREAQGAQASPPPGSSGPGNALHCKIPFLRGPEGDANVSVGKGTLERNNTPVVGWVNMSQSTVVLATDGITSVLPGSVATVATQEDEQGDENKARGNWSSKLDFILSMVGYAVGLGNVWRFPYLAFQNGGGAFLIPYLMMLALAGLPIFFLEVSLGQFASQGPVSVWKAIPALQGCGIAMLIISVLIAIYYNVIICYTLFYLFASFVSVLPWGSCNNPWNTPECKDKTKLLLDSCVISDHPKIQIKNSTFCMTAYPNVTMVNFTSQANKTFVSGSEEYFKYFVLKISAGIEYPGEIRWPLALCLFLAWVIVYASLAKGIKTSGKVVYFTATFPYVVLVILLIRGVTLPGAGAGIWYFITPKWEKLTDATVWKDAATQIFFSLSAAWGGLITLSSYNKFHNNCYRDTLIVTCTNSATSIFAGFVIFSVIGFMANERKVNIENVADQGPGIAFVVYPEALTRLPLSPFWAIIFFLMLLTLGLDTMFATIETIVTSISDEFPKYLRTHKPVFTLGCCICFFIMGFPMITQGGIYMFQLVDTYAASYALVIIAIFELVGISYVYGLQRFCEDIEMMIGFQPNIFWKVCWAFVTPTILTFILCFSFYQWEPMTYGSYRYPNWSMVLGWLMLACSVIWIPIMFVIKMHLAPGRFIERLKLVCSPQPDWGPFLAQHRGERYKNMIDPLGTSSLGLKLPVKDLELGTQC

[2] = target: T2, glycine transporter-1 (GlyT-1) (Homo sapiens, UniProt P48067); test: [14C]glycine uptake assay in JAR cells endogenously expressing GlyT-1 (scintillation proximity); assay type: cell-based; conditions: for pIC50: JAR cells, [14C]glycine 5 μM, 3 hour incubation, read-out: GlyT-1 IC50
T2 construct: JAR cells (ATCC#HTB-144), which endogenously express GlyT-1; host or cells: JAR human choriocarcinoma cells
T2 sequence (P48067 1-706): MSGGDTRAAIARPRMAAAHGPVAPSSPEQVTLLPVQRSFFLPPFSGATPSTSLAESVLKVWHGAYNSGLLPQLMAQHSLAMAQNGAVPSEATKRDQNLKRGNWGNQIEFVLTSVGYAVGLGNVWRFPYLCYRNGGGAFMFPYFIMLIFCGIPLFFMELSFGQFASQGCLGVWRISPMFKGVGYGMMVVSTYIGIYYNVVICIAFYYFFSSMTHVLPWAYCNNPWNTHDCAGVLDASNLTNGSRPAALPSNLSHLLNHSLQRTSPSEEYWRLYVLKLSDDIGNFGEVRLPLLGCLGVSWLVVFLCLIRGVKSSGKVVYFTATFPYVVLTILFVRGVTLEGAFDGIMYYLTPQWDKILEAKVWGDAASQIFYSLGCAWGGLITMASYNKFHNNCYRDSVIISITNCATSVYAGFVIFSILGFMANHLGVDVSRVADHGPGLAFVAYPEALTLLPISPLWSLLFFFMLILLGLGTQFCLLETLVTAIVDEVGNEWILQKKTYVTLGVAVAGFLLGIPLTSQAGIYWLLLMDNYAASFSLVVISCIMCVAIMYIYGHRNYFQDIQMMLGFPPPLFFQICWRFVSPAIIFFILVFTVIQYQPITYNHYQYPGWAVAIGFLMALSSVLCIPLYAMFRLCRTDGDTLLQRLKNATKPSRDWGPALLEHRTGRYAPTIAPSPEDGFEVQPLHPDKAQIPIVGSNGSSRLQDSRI
Procedure, shortened: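 IC50 comes from a four-parameter fit of nine-point, duplicate curves measuring inhibition of 5 μM [14C]glycine uptake, read by scintillation proximity after 3 h at 37 °C. Cells are human JAR, which express GlyT-1 endogenously, given 10 min compound pre-treatment in pH 7.4 buffer with 5 mM alanine and 0.75% DMSO.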

| SMILES | pIC50 [1] | pIC50 [2] | IC50 ([2]; GlyT-1 IC50 (nM)) [nM] |
| --- | --- | --- | --- |
| CCCS(=O)(=O)N1CCN(C2(CNC(=O)c3ccccc3OC(F)(F)F)CCCCC2)CC1 [compound 4, N-((1-(4-(Propylsulfonyl)piperazin-1-yl)cyclohexyl)methyl)-2-(trifluoromethoxy) benzamide Hydrochloride] | 4.41 | 7.66 |  |
| CCCS(=O)(=O)N1CCN(C2(CNC(=O)c3c(N)cccc3Cl)CCCC2)CC1 [compound 77, 2-Amino-6-chloro-N-((1-(4-(propylsulfonyl)piperazin-1-yl)cyclopentyl)methyl) benzamide Hydrochloride] | < 4.52 | 6.74 |  |
| Cn1cc(S(=O)(=O)N2CCN(C3(CNC(=O)c4ccc(Cl)cc4Cl)CCCC3)CC2)nn1 [compound 110, 2,4-Dichloro-N-((1-(4-(1-methyl-1H-1,2,3-triazol-4-ylsulfonyl)piperazin-1-yl)cyclopentyl)methyl) benzamide Hydrochloride] | < 4.12 | 7.57 |  |
| CCCS(=O)(=O)N1CCN(C2(CNC(=O)c3ccccc3C(F)(F)F)CCC(F)(F)CC2)CC1 [compound 132, N-((4,4-Difluoro-1-(4-(propylsulfonyl)piperazin-1-yl)cyclohexyl)methyl)-2-(trifluoromethyl) benzamide Hydrochloride] | < 4.12 | 7.19 |  |
| COc1cc(F)cc(C)c1C(=O)NCC1(N2CCN(S(=O)(=O)c3cn(C)nn3)CC2)CCCC1 [compound 112, 4-Fluoro-2-methoxy-6-methyl-N-((1-(4-(1-methyl-1H-1,2,3-triazol-4-ylsulfonyl)piperazin-1-yl)cyclopentyl)methyl) benzamide Hydrochloride] | < 4.12 | 7.85 |  |
| CCCS(=O)(=O)N1CCN(C2(CNC(=O)c3ccccc3F)CCCCCC2)CC1 [compound 63, 2-Fluoro-N-((1-(4-(propylsulfonyl)piperazin-1-yl)cycloheptyl)methyl) benzamide Hydrochloride] | < 4.12 | 7.00 |  |
| CCCS(=O)(=O)N1CCN(C2(CNC(=O)c3c(N)cccc3Cl)Cc3ccccc3C2)CC1 [compound 115, 2-Amino-6-chloro-N-((2-(4-(propylsulfonyl)piperazin-1-yl)-2,3-dihydro-1H-inden-2-yl)methyl)benzamide Hydrochloride] | < 4.12 | 6.18 |  |
| CC(NC(=O)c1ccc(C(F)(F)F)cc1C(F)(F)F)C1(N2CCN(S(=O)(=O)c3cn(C)nn3)CC2)CCC(F)(F)CC1 (centres unmarked) [compound 225, N-(1-(4,4-Difluoro-1-(4-(1-methyl-1H-1,2,3-triazol-4-ylsulfonyl)piperazin-1-yl)cyclohexyl)ethyl)-2,4-bis(trifluoromethyl) benzamide Hydrochloride] | < 4.12 | 7.55 |  |
| CCS(=O)(=O)N1CCN(C2(CNC(=O)c3c(Cl)cc(C(F)(F)F)cc3Cl)CCC(F)(F)CC2)CC1 [compound 207, 2,6-Dichloro-N-((1-(4-(ethylsulfonyl)piperazin-1-yl)-4,4-difluoro-cyclohexyl)methyl)-4-(trifluoromethyl) benzamide Hydrochloride] | < 4.12 | 7.19 |  |
| CC(NC(=O)c1ccc(C(F)(F)F)cc1Cl)C1(N2CCN(S(=O)(=O)c3cn(C)nn3)CC2)CCC(F)(F)CC1 (racemic) [compound 222, (±)-2-Chloro-N-(1-(4,4-difluoro-1-(4-(1-methyl-1H-1,2,3-triazol-4-ylsulfonyl)piperazin-1-yl)cyclohexyl)ethyl)-4-(trifluoromethyl) benzamide Hydrochloride] | < 4.12 | 9.00 |  |
| O=C(NCC1(N2CCN(S(=O)(=O)CC3CC3)CC2)CCCOC1)c1c(F)cccc1F (centres unmarked) [compound 126, N-((3-(4-(Cyclopropylmethyl-sulfonyl)piperazin-1-yl)tetrahydro-2H-pyran-3-yl)methyl)-2,6-difluorobenzamide Hydrochloride] | < 4.12 | 6.14 |  |
| COc1cc(F)cc(C)c1C(=O)NCC1(N2CCN(S(=O)(=O)c3cn(C)cn3)CC2)CCCC1 [compound 103, 4-Fluoro-2-methoxy-6-methyl-N-((1-(4-(1-methyl-1H-imidazol-4-ylsulfonyl)piperazin-1-yl)cyclopentyl)methyl) benzamide Hydrochloride] | < 4.12 | 7.35 |  |
| CCCS(=O)(=O)N1CCN(C2(CNC(=O)c3ccccc3)CCCCC2)CC1 [compound 24, N-((1-(4-(Propylsulfonyl)piperazin-1-yl)cyclohexyl)methyl) benzamide Hydrochloride] | < 4.12 |  |  |
| CCCS(=O)(=O)N1CCN(C2(CNC(=O)c3ccc(Cl)cc3Cl)CCOCC2)CC1 [compound 118, 2,4-Dichloro-N-((4-(4-(propylsulfonyl)piperazin-1-yl)tetrahydro-2H-pyran-4-yl)methyl)benzamide Hydrochloride] | < 4.12 |  |  |
| CN(C)S(=O)(=O)N1CCN(C2(CNC(=O)c3ccc(C(F)(F)F)cc3Cl)CCC(F)(F)CC2)CC1 [compound 273, 2-Chloro-N-((1-(4-(N,N-dimethylsulfamoyl)piperazin-1-yl)-4,4-difluorocyclohexyl)methyl)-4-(trifluoromethyl)benzamide Hydrochloride] |  | 6.46 |  |
| CCCS(=O)(=O)N1CCN(C2(CNC(=O)c3ccccc3OC)CCCCC2)CC1 [compound 40, 2-Methoxy-N-((1-(4-(propylsulfonyl)piperazin-1-yl)cyclohexyl)methyl) benzamide Hydrochloride] |  | 6.20 |  |
| CCS(=O)(=O)N1CCN(C2(CNC(=O)c3c(F)cc(Cl)cc3F)CCC(F)(F)CC2)CC1 [compound 208, 4-Chloro-N-((1-(4-(ethylsulfonyl)piperazin-1-yl)-4,4-difluoro-cyclohexyl)methyl)-2,6-difluorobenzamide Hydrochloride] |  | 6.86 |  |
| O=C(NCC1(N2CCN(S(=O)(=O)N3CCC3)CC2)CCC(F)(F)CC1)c1ccc(C(F)(F)F)cc1Cl [compound 271, N-((1-(4-(azetidin-1-ylsulfonyl)piperazin-1-yl)-4,4difluorocyclohexyl)methyl)-2-chloro-4-(trifluoromethyl)benzamide Hydrochloride] |  | 6.46 |  |
| CCCS(=O)(=O)N1CCN(C2(CNC(=O)c3c(F)cccc3F)CC3CC3C2)CC1 (centres unmarked) [compound 199, 2,6-Difluoro-N-((3-(4-(propylsulfonyl)piperazin-1-yl)bicyclo[3.1.0]hexan-3-yl)methyl)benzamide Hydrochloride] |  |  | 621 |
| CCCS(=O)(=O)N1CCN(C2(CNC(=O)c3ccc(C)c(C)c3)CCCCC2)CC1 [compound 35, 3,4-Dimethyl-N-((1-(4-(propylsulfonyl)piperazin-1-yl)cyclohexyl)methyl) benzamide Hydrochloride] |  | 5.97 |  |
| CCCS(=O)(=O)N1CCN(C2(CNC(=O)c3c(Cl)cccc3Cl)CCCCC2)CC1 [compound 43, 2,6-Dichloro-N-((1-(4-(propylsulfonyl)piperazin-1-yl)cyclohexyl)methyl) benzamide Hydrochloride] |  | 7.92 |  |
| Cn1cnc(S(=O)(=O)N2CCN(C3(CNC(=O)c4ccc(C(F)(F)F)cc4F)CCC(F)(F)CC3)CC2)c1 [compound 170, N-((4,4-Difluoro-1-(4-(1-methyl-1H-imidazol-4-ylsulfonyl)piperazin-1-yl)cyclohexyl)methyl)-2-fluoro-4-(trifluoromethyl)benzamide Hydrochloride] |  | 7.85 |  |
| CCCS(=O)(=O)N1CCN(C2(CNC(=O)c3ccc(C)c(Cl)c3)CCCCC2)CC1 [compound 31, 3-Chloro-4-methyl-N-((1-(4-(propylsulfonyl)piperazin-1-yl)cyclohexyl)methyl) benzamide Hydrochloride] |  | 6.23 |  |
